Measured values: ChEMBL document CHEMBL1150138, “The isolation of two new chromone derivatives from the New Zealand fungus Tolypocladium extinguens” (2002)
Values after ≈ are worked out from the molar mass of the structure shown. Active and inactive are the calls of the source. The rule behind the calls is not given here.

Key:
Bacillus subtilis = assay: Antimicrobial activity against Bacillus subtilis by disk susceptibility test; type: functional, organism-based
[1] = tested on: Trichophyton mentagrophytes; assay: Antimicrobial activity against Trichophyton mentagrophytes by disk susceptibility test; type: functional, organism-based
Pseudomonas aeruginosa = assay: Antimicrobial activity against Pseudomonas aeruginosa by disk susceptibility test; type: functional, organism-based
Escherichia coli = assay: Antimicrobial activity against Escherichia coli by disk susceptibility test; type: functional, organism-based
Candida albicans = assay: Antimicrobial activity against Candida albicans by disk susceptibility test; type: functional, organism-based
Amorphotheca resinae = assay: Antimicrobial activity against Cladosporium resinae by disk susceptibility test; type: functional, organism-based
P388 = assay: Cytotoxicity against mouse P388 cells after 1 to 11 days by MTT assay; type: functional; settings: read-out: ID50 (the source's name)

## COCc1c(OC)cc2oc(CO)cc(=O)c2c1O
Bacillus subtilis
  Activity: inactive
[1]
  Activity: inactive
Pseudomonas aeruginosa
  Activity: inactive
Escherichia coli
  Activity: inactive
Candida albicans
  Activity: inactive
Amorphotheca resinae
  Activity: inactive

## COc1cc2oc(C)cc(=O)c2c(O)c1CO
Bacillus subtilis
  Activity: inactive
[1]
  Activity: inactive
Pseudomonas aeruginosa
  Activity: inactive
Escherichia coli
  Activity: inactive
Candida albicans
  Activity: inactive
Amorphotheca resinae
  Activity: inactive

## COCc1c(OC)cc2oc(C)cc(=O)c2c1O
P388
  IC50: 6 µg/mL (≈ 24 µM)
Bacillus subtilis
  Activity: inactive
[1]
  Activity: inactive
Pseudomonas aeruginosa
  Activity: inactive
Escherichia coli
  Activity: inactive
Candida albicans
  Activity: inactive
Amorphotheca resinae
  Activity: inactive
